Measured values reported in patent US20260115202A1, “TOPICAL COMPOSITIONS COMPRISING AN ESTETROL COMPONENT AND USE OF SAID COMPOSITIONS FOR WOUND HEALING” (NEURALIS SA, priority 2022, published 2026).
Entries after “also recorded” stand apart in the source; their conditions may differ.

Experiments:
[1] = system: murine dermal fibroblasts (MDF); experiment: qPCR gene expression in murine dermal fibroblasts; assay type: cell-based, mouse; settings: for expression of ERα and ERβ: MDF, 10^−7M, qPCR
Source text: Primary human dermal fibroblasts (HDF) were isolated from abdominal skin or leg skin. Primary neonatal normal human epidermal keratinocytes (NHEK) were purchased (Lonza). Murine dermal fibroblasts (MDF), murine epidermal keratinocytes (MEK), murine peritoneal macrophages and murine bone marrow were isolated from C57/B16 (wt). NDb (Lepr+/−) or Db (Lepr−/−) mice. Fibroblasts were isolated and cultured in DMEM supplemented with 10% heat inactivated FBS. 1% penicillin/streptomycin and 1% amphotericin B. At least 4 days prior to performing assays cells were switched to DMEM supplemented with 5% charcoal-stripped FBS. Following treatments, human and murine macrophages were collected in Trizol and RNA isolated using the Trizol plus RNA isolation kit (Invitrogen. Thermo Fisher) according to the manufacturer's instructions. RNA was reverse transcribed to cDNA using GoScript reverse transcriptase (Promega). Quantitative real-time PCR was carried out using 2×Takyon SYBR Green mastermix and a CFX Connect thermocycler. Primers for ERα and ERβ were used to explore changes in ER expression after treatment of MEK and MDF with E2 and E4. To investigate the effect of E2 and E4 on MEK differentiation and the expression of ECM proteins by MDF, primers for. Snail, keratin-1 and fibronectin, collagen I. MMP-2 and MMP-9 were used. Primers for INOS. IL-1B and Tnf-α or Ccl17 were used to assess M1/M2 polarisation status. Primers for GAPDH were used to normalise data. Relative gene expression was set to vehicle controls or M0 expression unless otherwise stated. In vitro cultured murine fibroblasts were treated with either E2, E4, DPN or PPT at 10^−7M. As previously reported. […] Next, zymography was performed on cell supernatants from HDFs treated with either E2 or E4, to evaluate the effect of E2 and E4 on cell-derived MMP activity. […] The magnitude of the effect (and statistical significance) was greater in cells treated with E4. No MMP9 activity was detected in any treatment group. Finally, we explored the effect of E2 and E4 on murine fibroblast expression of extracellular matrix genes, specifically collagen 1 (Colal) and fibronectin (Fn1) (FIG. 20).

MMP2 = experiment: Zymography of supernatants from human dermal fibroblasts; assay type: cell-based; settings: HDFs from 3 independent donors, versus control
Description: In vitro cultured murine fibroblasts were treated with either E2, E4, DPN or PPT at 10^−7M. As previously reported. […] Next, zymography was performed on cell supernatants from HDFs treated with either E2 or E4, to evaluate the effect of E2 and E4 on cell-derived MMP activity. […] The magnitude of the effect (and statistical significance) was greater in cells treated with E4. No MMP9 activity was detected in any treatment group. Finally, we explored the effect of E2 and E4 on murine fibroblast expression of extracellular matrix genes, specifically collagen 1 (Colal) and fibronectin (Fn1) (FIG. 20).

[2] = system: primary mouse epidermal keratinocytes (MEKs); experiment: qPCR gene expression in primary mouse epidermal keratinocytes; assay type: cell-based; settings: MEK; for expression of EMT marker Snail: 10^−7M; for expression of ERα and ERβ: particularly at 10^−7M, 24 hours, not statistically significant
Description: Primary human dermal fibroblasts (HDF) were isolated from abdominal skin or leg skin. Primary neonatal normal human epidermal keratinocytes (NHEK) were purchased (Lonza). Murine dermal fibroblasts (MDF), murine epidermal keratinocytes (MEK), murine peritoneal macrophages and murine bone marrow were isolated from C57/B16 (wt). NDb (Lepr+/−) or Db (Lepr−/−) mice.
Neonatal HEK were cultured in EpiLife supplemented with […] human keratinocyte growth supplements (HKGS) and 1% penicillin/streptomycin. MEK were cultured in CnT basal medium supplemented with 1% penicillin/streptomycin and 1% amphotericin B.
Following treatments, human and murine macrophages were collected in Trizol and RNA isolated using the Trizol plus RNA isolation kit (Invitrogen. Thermo Fisher) according to the manufacturer's instructions. RNA was reverse transcribed to cDNA using GoScript reverse transcriptase (Promega). Quantitative real-time PCR was carried out using 2×Takyon SYBR Green mastermix and a CFX Connect thermocycler. Primers for ERα and ERβ were used to explore changes in ER expression after treatment of MEK and MDF with E2 and E4. To investigate the effect of E2 and E4 on MEK differentiation and the expression of ECM proteins by MDF, primers for. Snail, keratin-1 and fibronectin, collagen I. MMP-2 and MMP-9 were used. Primers for INOS. IL-1B and Tnf-α or Ccl17 were used to assess M1/M2 polarisation status. Primers for GAPDH were used to normalise data. Relative gene expression was set to vehicle controls or M0 expression unless otherwise stated.
Next, we switched to primary mouse epidermal keratinocytes (MEKs) to explore the effect of E2 and E4 on MEK wound-relevant gene expression. […] Snail, following treatment with either E2 or E4 at 10^−7M. […] In general, the observed effects of E2 and E4 on gene expression were reversed by co-treatment with the ER antagonist ICI.

THP1 cells = experiment: THP1 macrophage polarisation, qPCR of M1/M2 markers; assay type: cell-based, human; settings: range of concentrations; for expression of Tnf-α (M1 marker): M1 polarised THP1 cells; for expression of CCL17 (M2 marker): M2 polarised THP1 cells
Description: THP1 cells were maintained in RPM1 growth medium supplemented with 10% heat-inactivated FBS and 1% penicillin/streptomycin. Cells were seeded into 12- or 6-well plates at 2×10^5 cells/ml and treated with phorbol 12-myristate 13-acetate (PMA) to induce differentiation to macrophages. Cells were cultured for 24 hours in complete growth medium without PMA, followed by a 6 hour serum starve prior to polarisation. Cells were polarised to M1 macrophages using 20 ng/ml IFN-γ and 10 pg/ml LPS (from E, coli) for 6 or 24 hours and collected for RNA isolation or flow cytometry. Following treatments, human and murine macrophages were collected in Trizol and RNA isolated using the Trizol plus RNA isolation kit (Invitrogen. Thermo Fisher) according to the manufacturer's instructions. RNA was reverse transcribed to cDNA using GoScript reverse transcriptase (Promega). Quantitative real-time PCR was carried out using 2×Takyon SYBR Green mastermix and a CFX Connect thermocycler. Primers for ERα and ERβ were used to explore changes in ER expression after treatment of MEK and MDF with E2 and E4. To investigate the effect of E2 and E4 on MEK differentiation and the expression of ECM proteins by MDF, primers for. Snail, keratin-1 and fibronectin, collagen I. MMP-2 and MMP-9 were used. Primers for INOS. IL-1B and Tnf-α or Ccl17 were used to assess M1/M2 polarisation status. Primers for GAPDH were used to normalise data. Relative gene expression was set to vehicle controls or M0 expression unless otherwise stated. The relative anti-inflammatory effects of both E2 and E4 were evaluated in vitro. First, the human monocyte THP1 cell line was used to screen several concentrations of E2 and E4. THP1 cells were differentiated to a macrophage phenotype by treatment with PMA, followed by polarisation to an M1 or M2 phenotype (FIG. 23). Successful polarisation was confirmed by profiling the expression of the M1 marker (TNF-α) and the M2 marker (CCL17). The effects of co-treatment with a range of E2 or E4 concentrations were evaluated.

[3] = fibroblasts derived from diabetic (db/db) mice
[4] = fibroblasts derived from wild-type mice

**Q.** Which results are given for `C[C@]12CC[C@@H]3c4ccc(O)cc4CC[C@H]3[C@@H]1CC[C@@H]2O` [Formulation E2, 17β-estradiol, reference compound]?
**A.** expression of ERα and ERβ [1]: upregulated expression of both ERα and ERβ; expression of collagen 1 and fibronectin (Fn1) [1, 3]: trend towards increased expression of both Co1a1 and Fn1; expression of collagen 1 and fibronectin (Fn1) [1, 4]: no effect was observed following treatment; MMP2 activity in cell supernatants (MMP2): significantly reduced MMP2 activity versus control; expression of differentiation marker Keratin 1 (Krt1) [2]: trend towards downregulation; expression of EMT marker Snail [2]: statistically significant induction; expression of ERα and ERβ [2]: strong trend towards induction of both ERα and ERβ; expression of Tnf-α (M1 marker) (THP1 cells): strong trend towards reduced expression of Tnf-α in M1 polarised cells; expression of CCL17 (M2 marker) (THP1 cells): increased expression of CCL 17 in M2 polarised cells

**Q.** How did the “expression of ERα and ERβ” value [1] turn out when `C[C@]12CC[C@@H]3c4ccc(O)cc4CC[C@H]3[C@@H]1[C@@H](O)[C@@H](O)[C@@H]2O` [Formulation E4, 1,3,5 (10)-estratrien-3,15alpha, 16alpha, 17beta-tetrol] was run?
**A.** increases expression of both ERα and ERβ

**Q.** What about the “expression of collagen 1 and fibronectin (Fn1)” value [1, 3] of the same molecule?
**A.** trend towards increased expression of both Co1a1 and Fn1; also recorded: reached statistical significance for fibronectin (Fn1)

**Q.** And the “expression of collagen 1 and fibronectin (Fn1)” value [1, 4]?
**A.** no effect was observed following treatment

**Q.** What about the “MMP2 activity in cell supernatants” value (MMP2) of the same molecule?
**A.** significantly reduced MMP2 activity versus control

**Q.** And the “expression of differentiation marker Keratin 1 (Krt1)” value [2]?
**A.** trend towards downregulation

**Q.** What about the “expression of EMT marker Snail” value [2] of the same molecule?
**A.** statistically significant induction

**Q.** What about the “expression of ERα and ERβ” value [2] of the same molecule?
**A.** strong trend towards increased expression of both ERα and ERβ

**Q.** And the “expression of Tnf-α (M1 marker)” value (THP1 cells)?
**A.** strong trend towards reduced expression of Tnf-α in M1 polarised cells

**Q.** And the “expression of CCL17 (M2 marker)” value (THP1 cells)?
**A.** increased expression of CCL 17 in M2 polarised cells
